According to ChEMBL document CHEMBL4831510, “Novel cannabidiol-carbamate hybrids as selective BuChE inhibitors: Docking-based fragment reassembly for the development of potential therapeutic agents against Alzheimer's disease” (Eur J Med Chem, 2021):
Activity calls are given as the source filed them. The calls are words filed in the database; no cut-off is given here.

Key:
[1] = Antioxidant activity assessed as DPPH radical scavenging activity at 100 uM incubated for 2 hrs by microplate reader method; type: functional
Acetylcholinesterase [2] = biological target: Acetylcholinesterase (Electrophorus electricus, UniProt O42275); test: Inhibition of electric eel AChE using acetylthiocholine iodide as substrate preincubated with enzyme for 20 mins followed by substrate addition and measured after 20 mins by Ellman's method
Chain of Acetylcholinesterase (Electrophorus electricus, UniProt O42275) (O42275 whole entry): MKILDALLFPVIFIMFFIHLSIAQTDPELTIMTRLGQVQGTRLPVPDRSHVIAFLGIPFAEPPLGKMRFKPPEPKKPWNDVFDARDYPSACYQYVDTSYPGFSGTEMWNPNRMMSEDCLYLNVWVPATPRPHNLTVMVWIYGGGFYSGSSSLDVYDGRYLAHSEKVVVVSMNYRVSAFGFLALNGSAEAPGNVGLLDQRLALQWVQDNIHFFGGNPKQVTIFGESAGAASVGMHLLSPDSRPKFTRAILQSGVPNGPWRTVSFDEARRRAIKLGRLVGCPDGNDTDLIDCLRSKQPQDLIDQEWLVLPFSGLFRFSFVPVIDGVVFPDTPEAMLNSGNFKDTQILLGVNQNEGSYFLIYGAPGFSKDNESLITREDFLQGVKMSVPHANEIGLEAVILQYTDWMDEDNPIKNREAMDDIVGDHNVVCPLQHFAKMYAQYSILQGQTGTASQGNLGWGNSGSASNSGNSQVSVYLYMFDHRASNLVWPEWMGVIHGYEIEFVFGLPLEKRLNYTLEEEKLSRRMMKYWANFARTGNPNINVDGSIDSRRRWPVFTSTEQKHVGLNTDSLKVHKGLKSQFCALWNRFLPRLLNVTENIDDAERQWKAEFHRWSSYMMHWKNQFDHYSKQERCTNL

Cholinesterase [3] = biological target: T1, Cholinesterase (Equus caballus, UniProt P81908)
T1 sequence (P81908 whole entry): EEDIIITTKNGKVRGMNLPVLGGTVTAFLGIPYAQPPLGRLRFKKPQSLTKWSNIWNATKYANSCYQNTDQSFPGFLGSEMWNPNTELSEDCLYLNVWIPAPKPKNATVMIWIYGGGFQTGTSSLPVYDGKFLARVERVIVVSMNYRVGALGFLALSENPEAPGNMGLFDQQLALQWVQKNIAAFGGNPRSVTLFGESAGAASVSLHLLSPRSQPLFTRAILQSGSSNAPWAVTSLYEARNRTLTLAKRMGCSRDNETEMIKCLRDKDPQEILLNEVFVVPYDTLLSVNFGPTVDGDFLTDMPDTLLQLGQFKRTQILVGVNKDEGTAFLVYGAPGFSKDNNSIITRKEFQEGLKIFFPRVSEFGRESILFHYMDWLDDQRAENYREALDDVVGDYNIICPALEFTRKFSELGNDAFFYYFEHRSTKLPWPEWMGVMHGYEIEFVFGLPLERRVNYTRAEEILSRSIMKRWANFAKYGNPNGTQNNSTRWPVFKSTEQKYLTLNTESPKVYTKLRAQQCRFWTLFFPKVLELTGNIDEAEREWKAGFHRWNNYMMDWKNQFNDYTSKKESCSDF
Description: Inhibition of equine serum BuChE using butyrylthiocholine iodide as substrate preincubated with enzyme for 20 mins followed by substrate addition and measured after 20 mins by Ellman's method

Mus musculus [4] = test: Anti-alzheimer activity against oligomerized-amyloid beta (1 to 42) peptide-induced cognitive dysfunction ICR mouse model assessed as improvement in alteration performance at 15 mg/kg, po administered from day 3 to 14 by […]; type: functional, organism-based; conditions: time 12.0 day
Mus musculus [5] = test: Anti-alzheimer activity against scopolamine-induced cognitive dysfunction mouse model assessed as reduction in escape time latency at 10 mg/kg, ip measured after 60 mins by Morris water maze test; type: functional, organism-based
Mus musculus [6] = test: Anti-alzheimer activity against scopolamine-induced cognitive dysfunction mouse model assessed as increase in number of platform crossing at 10 mg/kg, ip measured after 60 mins by Morris water maze test; type: functional, organism-based
[7] = Cytotoxicity against human HepG2 cells assessed as cell viability at 50 uM incubated for 24 hrs by MTT assay; type: cell-based; conditions: read-out: Activity
Mus musculus [8] = species: Mus musculus; test: animal or person; conditions: ICR, po, 288 h, read-out: INH
Description: Anti-alzheimer activity against oligomerized-amyloid beta (1 to 42) peptide-induced cognitive dysfunction ICR mouse model assessed as reduction in amyloid beta (1 to 42) peptide level in brain at 15 mg/kg, po administered from day 3 to 14 by ELISA

Mus musculus [9] = test: Anti-alzheimer activity against oligomerized-amyloid beta (1 to 42) peptide-induced cognitive dysfunction ICR mouse model assessed as simplification of trajectories to the platform at 15 mg/kg, po administered from day 3 to 14 by Morris water maze test; type: functional, organism-based; conditions: time 12.0 day
Mus musculus [10] = test: Anti-alzheimer activity against scopolamine-induced cognitive dysfunction mouse model assessed as increase in swimming time in the target quadrant crossing at 10 mg/kg, ip measured after 60 mins by Morris water maze test; type: functional, organism-based
Mus musculus [11] = test: Anti-alzheimer activity against oligomerized-amyloid beta (1 to 42) peptide-induced cognitive dysfunction ICR mouse model assessed as reduction in escape latency time at 15 mg/kg, po administered from day 3 to 14 by Morris water maze test; type: functional, organism-based; conditions: time 12.0 day
[12] = biological target: Cholinesterase (Equus caballus) (UniProt P81908); test: Pseudo-irreversible inhibition of equine serum BuChE assessed as overall carbamolyation-rate using butyrylthiocholine iodide as substrate preincubated with enzyme for 60 mins prior to substrate addition; type: cell-free
Chain of Cholinesterase (Equus caballus) (P81908 whole entry): as above

Acetylcholinesterase [13] = biological target: Acetylcholinesterase (Homo sapiens, UniProt P22303); test: Inhibition of human AChE using acetylthiocholine iodide as substrate at 20 uM preincubated with enzyme for 5 mins followed by substrate addition and measured after 5 mins by Ellman's method; conditions: time 10.0 min
Chain of Acetylcholinesterase (Homo sapiens, UniProt P22303) (P22303 whole entry): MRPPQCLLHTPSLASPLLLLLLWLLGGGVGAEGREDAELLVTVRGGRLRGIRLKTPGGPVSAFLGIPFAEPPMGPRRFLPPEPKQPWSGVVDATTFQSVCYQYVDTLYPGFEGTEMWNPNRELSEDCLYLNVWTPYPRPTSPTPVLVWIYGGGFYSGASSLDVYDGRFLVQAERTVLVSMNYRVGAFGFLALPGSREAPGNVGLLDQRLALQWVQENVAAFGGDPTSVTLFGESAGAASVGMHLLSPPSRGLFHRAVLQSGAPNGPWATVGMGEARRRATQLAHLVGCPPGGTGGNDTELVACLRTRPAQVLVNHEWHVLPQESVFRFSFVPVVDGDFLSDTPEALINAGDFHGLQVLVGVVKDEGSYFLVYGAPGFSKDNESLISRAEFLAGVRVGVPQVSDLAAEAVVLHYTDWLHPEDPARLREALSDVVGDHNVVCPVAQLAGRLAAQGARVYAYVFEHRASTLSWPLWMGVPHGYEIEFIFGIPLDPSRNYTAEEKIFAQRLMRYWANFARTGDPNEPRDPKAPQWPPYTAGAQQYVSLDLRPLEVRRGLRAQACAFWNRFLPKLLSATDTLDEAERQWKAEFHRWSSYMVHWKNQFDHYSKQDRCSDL

[14] = biological target: Cholinesterase (Equus caballus) (UniProt P81908); test: Pseudo-irreversible inhibition of equine serum BuChE assessed as decarbamolyation-rate using butyrylthiocholine iodide as substrate preincubated with enzyme for 60 mins prior to substrate addition; type: cell-free
[15] = biological target: Cholinesterase (Equus caballus) (UniProt P81908); test: Pseudo-irreversible inhibition of equine serum BuChE assessed as carbamolyation-rate using butyrylthiocholine iodide as substrate preincubated with enzyme for 60 mins prior to substrate addition; type: cell-free
[16] = biological target: Acetylcholinesterase (Electrophorus electricus) (UniProt O42275); test: Inhibition of electric eel AChE using acetylthiocholine iodide as substrate at 20 uM preincubated with enzyme for 20 mins followed by substrate addition and measured after 20 mins by Ellman's method; conditions: time 40.0 min
Chain of Acetylcholinesterase (Electrophorus electricus) (O42275 24-633 limits assumed): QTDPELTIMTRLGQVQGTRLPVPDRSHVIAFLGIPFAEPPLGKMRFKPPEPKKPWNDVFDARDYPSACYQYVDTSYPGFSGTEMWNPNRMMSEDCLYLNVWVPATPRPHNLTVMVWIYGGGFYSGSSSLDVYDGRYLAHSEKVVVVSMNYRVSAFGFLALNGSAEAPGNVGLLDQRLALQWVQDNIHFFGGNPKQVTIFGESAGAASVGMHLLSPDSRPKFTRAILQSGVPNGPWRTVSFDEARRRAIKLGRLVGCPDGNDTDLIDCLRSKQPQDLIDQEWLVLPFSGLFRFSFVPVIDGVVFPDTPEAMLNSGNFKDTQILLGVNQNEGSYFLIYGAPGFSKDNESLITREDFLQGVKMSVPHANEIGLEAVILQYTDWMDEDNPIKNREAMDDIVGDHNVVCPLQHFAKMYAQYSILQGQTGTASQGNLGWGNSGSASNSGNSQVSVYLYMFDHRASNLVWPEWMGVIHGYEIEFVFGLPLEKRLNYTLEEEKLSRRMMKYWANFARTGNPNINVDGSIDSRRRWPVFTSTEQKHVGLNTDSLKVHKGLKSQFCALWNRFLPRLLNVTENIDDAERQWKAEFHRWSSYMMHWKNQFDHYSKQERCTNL

[17] = n-Octanol/PBS partition coefficient, logP of the compound incubated for 48 hrs at pH 7.4 by shake flask method; type: physicochemical
Cholinesterase [18] = biological target: Cholinesterase (Homo sapiens, UniProt P06276)
Chain of Cholinesterase (Homo sapiens, UniProt P06276) (P06276 whole entry): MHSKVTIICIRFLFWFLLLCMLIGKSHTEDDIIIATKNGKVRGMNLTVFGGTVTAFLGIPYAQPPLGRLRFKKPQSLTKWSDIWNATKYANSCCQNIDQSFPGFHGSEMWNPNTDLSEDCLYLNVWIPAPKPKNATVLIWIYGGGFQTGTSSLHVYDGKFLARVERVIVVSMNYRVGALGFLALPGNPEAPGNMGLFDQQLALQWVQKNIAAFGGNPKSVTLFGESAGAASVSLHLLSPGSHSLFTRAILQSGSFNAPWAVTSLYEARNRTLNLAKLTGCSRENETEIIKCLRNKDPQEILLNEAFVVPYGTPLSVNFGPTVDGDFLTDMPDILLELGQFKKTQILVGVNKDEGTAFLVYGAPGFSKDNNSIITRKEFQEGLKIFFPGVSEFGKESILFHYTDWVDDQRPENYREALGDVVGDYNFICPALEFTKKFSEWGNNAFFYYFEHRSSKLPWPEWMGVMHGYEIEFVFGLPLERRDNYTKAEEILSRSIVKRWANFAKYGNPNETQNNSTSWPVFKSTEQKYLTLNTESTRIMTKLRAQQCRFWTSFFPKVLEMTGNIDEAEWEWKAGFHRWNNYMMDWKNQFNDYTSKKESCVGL
Description: Inhibition of human serum BuChE using butyrylthiocholine iodide as substrate preincubated with enzyme for 5 mins followed by substrate addition and measured after 5 mins by Ellman's method

[19] = Cytotoxicity against human L02 cells assessed as cell viability at 50 uM incubated for 24 hrs by MTT assay; type: cell-based; conditions: read-out: Activity
Mus musculus [20] = test: Anti-alzheimer activity against oligomerized-amyloid beta (1 to 42) peptide-induced cognitive dysfunction ICR mouse model assessed as simplification of trajectories to the platform at 5 mg/kg, po administered from day 3 to 14 by Morris water maze test; type: functional, organism-based; conditions: time 12.0 day
Mus musculus [21] = test: Anti-alzheimer activity against oligomerized-amyloid beta (1 to 42) peptide-induced cognitive dysfunction ICR mouse model assessed as reduction in escape latency time at 5 mg/kg, po administered from day 3 to 14 by Morris water maze test; type: functional, organism-based; conditions: time 12.0 day
Mus musculus [22] = test: Anti-alzheimer activity against oligomerized-amyloid beta (1 to 42) peptide-induced cognitive dysfunction ICR mouse model assessed as improvement in alteration performance at 5 mg/kg, po administered from day 3 to 14 by […]; type: functional, organism-based; conditions: time 12.0 day
[23] = Acute toxicity in ICR mouse assessed as effect on body weight at 1 g/kg, ig measured for 14 days; conditions: in vivo, po, 1000 mg/kg, 336 h, time 14 day
[24] = Hepatotoxicity in ICR mouse assessed as pericentral necrosis in liver at 30 mg/kg, ig measured after 36 hrs by immunohistochemical staining based analysis; type: toxicity, organism-based; conditions: in vivo, po
[25] = Permeability of the compound at 100 ug/ml incubated for 18 hrs by PAMPA; type: ADME; conditions: dose 100 µg/ml, read-out: permeability
[26] = Hepatotoxicity in ICR mouse assessed as effect on ALT level in serum at 30 mg/kg, ig measured after 36 hrs; type: toxicity, organism-based; conditions: in vivo, po
Mus musculus [27] = test: Anti-alzheimer activity against scopolamine-induced cognitive dysfunction mouse model assessed as increase in number of platform crossing at 20 mg/kg, ip measured after 60 mins by Morris water maze test; type: functional, organism-based
[28] = Hepatotoxicity in ICR mouse assessed as effect on AST level in serum at 30 mg/kg, ig measured after 36 hrs; type: toxicity, organism-based; conditions: in vivo, po
PC-12 [29] = test: Neuroprotective activity against H2O2-induced cytotoxicity in rat PC-12 cells assessed as cell viability at 25 uM pretreated for 3 hrs followed by H2O2 stimulation and measured after 24 hrs by MTT assay (reference value: 38.7%); type: functional; conditions: time 27 hrs, read-out: Activity
Cholinesterase [30] = biological target: T1, Cholinesterase; test: Pseudo-irreversible inhibition of equine serum BuChE assessed as binding affinity in an equilibrium state using butyrylthiocholine iodide as substrate preincubated with enzyme for 60 mins prior to substrate addition; type: cell-free
Mus musculus [31] = test: Anti-alzheimer activity against oligomerized-amyloid beta (1 to 42) peptide-induced cognitive dysfunction ICR mouse model assessed as reduction in amyloid beta (1 to 42) peptide level in brain at 5 mg/kg, po administered from day 3 to 14 by ELISA; type: functional; conditions: 288 h, time 12 day
Mus musculus [32] = test: Anti-alzheimer activity against scopolamine-induced cognitive dysfunction mouse model assessed as increase in swimming time in the target quadrant crossing at 20 mg/kg, ip measured after 60 mins by Morris water maze test; type: functional, organism-based
[33] = Acute toxicity in ICR mouse assessed as behavioral changes at 1 g/kg, ig measured for 7 days; conditions: in vivo, po, 1000 mg/kg, 168 h, time 7 day
[34] = Acute toxicity in ICR mouse assessed as animal death at 1 g/kg, ig measured for 7 days; conditions: in vivo, po, 1000 mg/kg, 168 h, time 7 day
Mus musculus [35] = test: Anti-alzheimer activity against oligomerized-amyloid beta (1 to 42) peptide-induced cognitive dysfunction ICR mouse model assessed as increase in neuronal density at CA1 region of hippocampus at 5 mg/kg, po administered from day 3 to 14 by Hematoxylin-Eosin staining based microscopic analysis; type: functional, organism-based; conditions: time 12.0 day
[36] = Hepatotoxicity in ICR mouse assessed as distinct fatty degeneration of hepatocytes of the surrounding intermediate and peripheral zones in liver at 30 mg/kg, ig measured after 36 hrs by immunohistochemical staining based analysis; type: toxicity, organism-based; conditions: in vivo, po
PC-12 [37] = test: Neuroprotective activity against H2O2-induced cytotoxicity in rat PC-12 cells assessed as increase in cell viability pretreated for 3 hrs followed by H2O2 stimulation and measured after 24 hrs by MTT assay; type: functional, cell-based; conditions: time 27.0 hrs
Mus musculus [38] = test: Anti-alzheimer activity against scopolamine-induced cognitive dysfunction mouse model assessed as reduction in escape time latency at 20 mg/kg, ip measured after 60 mins by Morris water maze test; type: functional, organism-based

Structure (SMILES): C=C(C)[C@@H]1CCC(C)=C[C@H]1c1c(OC(=O)N2CCCC2)cc(CCCCC)cc1OC(=O)N1CCCC1
- inhibition [1]: 17.8%
- IC50 (Acetylcholinesterase [2]): Not Active
- IC50 (Cholinesterase [3]): 530 nM

Structure (SMILES): C=C(C)[C@@H]1CCC(C)=C[C@H]1c1c(O)cc(CCCCC)cc1OC(=O)N(C)Cc1cccc(Br)c1
- inhibition [1]: inactive
- IC50 (Acetylcholinesterase [2]): Not Active
- IC50 (Cholinesterase [3]): 2400 nM

Structure (SMILES): COc1cc2c(cc1OC)C(=O)C(CC1CCN(Cc3ccccc3)CC1)C2 (stereo unspecified) [DONEPEZIL]
- Activity (Mus musculus [4]): Active
- Activity (Mus musculus [5]): Active
- Activity (Mus musculus [6]): Active
- inhibition [1]: 1.3%
- viability at 24 h, 50 µM [7]: 91.1%
- inhibition in vivo at 15 mg/kg (Mus musculus [8]): 19%
- Activity (Mus musculus [9]): Active
- Activity (Mus musculus [10]): Active
- Activity (Mus musculus [11]): Active

Structure (SMILES): C=C(C)[C@@H]1CCC(C)=C[C@H]1c1c(O)cc(CCCCC)cc1OC(=O)N(C)Cc1ccc(F)cc1
- inhibition [1]: 27%
- IC50 (Acetylcholinesterase [2]): Not Active
- IC50 (Cholinesterase [3]): 69 nM

Structure (SMILES): C=C(C)[C@@H]1CCC(C)=C[C@H]1c1c(OC(=O)N(C)Cc2ccccc2)cc(CCCCC)cc1OC(=O)N(C)Cc1ccccc1
- inhibition [1]: 41.8%
- IC50 (Acetylcholinesterase [2]): Not Active
- IC50 (Cholinesterase [3]): 380 nM

Structure (SMILES): CCN(C)C(=O)Oc1cccc([C@H](C)N(C)C)c1
- K [12]: 0.26 µM/min
- inhibition (Acetylcholinesterase [13]): 12.2%
- K [14]: 4.97 10^3/min
- inhibition [1]: 2.5%
- K [15]: 0.3 min⁻¹

Structure (SMILES): C=C(C)[C@@H]1CCC(C)=C[C@H]1c1c(O)cc(CCCCC)cc1OC(=O)N1CCCCC1
- inhibition [1]: 46.8%
- inhibition [16]: 30.5%
- IC50 (Cholinesterase [3]): 530 nM

Structure (SMILES): C=C(C)[C@@H]1CCC(C)=C[C@H]1c1c(OC(=O)N(C)CC)cc(CCCCC)cc1OC(=O)N(C)CC
- logD at 48 h [17]: 2.57
- inhibition [1]: 0.1%
- IC50 (Acetylcholinesterase [2]): Not Active
- IC50 (Cholinesterase [3]): 290 nM

Structure (SMILES): C=C(C)[C@@H]1CCC(C)=C[C@H]1c1c(O)cc(CCCCC)cc1OC(=O)N1CCOCC1
- inhibition [1]: 21.1%
- IC50 (Acetylcholinesterase [2]): Not Active
- IC50 (Cholinesterase [3]): 1890 nM

Structure (SMILES): C=C(C)[C@@H]1CCC(C)=C[C@H]1c1c(O)cc(CCCCC)cc1OC(=O)N(C)Cc1ccc(Cl)cc1
- IC50 (Cholinesterase [18]): 1770 nM
- viability at 24 h, 50 µM [19]: 96%
- Activity (Mus musculus [20]): Active
- Activity (Mus musculus [21]): Active
- Activity (Mus musculus [22]): Active
- K [12]: 20.3 µM/min
- Activity [23]: Non-Toxic
- logD at 48 h [17]: 2.38
- Activity [24]: Non-Toxic
- inhibition (Acetylcholinesterase [13]): 26.3%
- K [14]: 5.2 10^3/min
- inhibition [1]: 27.1%
- Papp at 18 h, 100 ug/ml [25]: 12.9 ×10⁻⁶ cm/s
- K [15]: 0.26 min⁻¹
- viability at 24 h, 50 µM [7]: 88.3%
- inhibition [16]: 21.4%
- Activity [26]: Non-Toxic
- Activity (Mus musculus [27]): Active
- Activity [28]: Non-Toxic
- viability at 25 µM (PC-12 [29]): 41.9%
- Kd (Cholinesterase [30]): 13 nM
- inhibition in vivo at 5 mg/kg (Mus musculus [31]): 31.6%
- Activity (Mus musculus [32]): Active
- Activity [33]: Non-Toxic
- Activity [34]: Non-Toxic
- Activity (Mus musculus [35]): Active
- Activity [36]: Non-Toxic
- Activity (PC-12 [37]): Dose-Dependent Effect
- Activity (Mus musculus [38]): Active
- IC50 (Cholinesterase [3]): 5.3 nM
